This passage reports melting point results from a melting point compilation (Tetko et al.; mined from patent text by program, amines drawn as free bases though some values may be those of a salt).

For orientation: melting point means the temperature, or range, at which the solid turns liquid. `Cc1c(C(=O)c2cnn(C)c2O)ccc2sc(=O)n(C)c12` showed a melting point of 192 to 195 °C.

Take `CCCCc1nc2ccn(Cc3ccc([N+](=O)[O-])cc3)c(=O)c2n1Cc1ccc([N+](=O)[O-])cc1`: the melting point lay in the range of 142 to 143 °C.

With `CCCOc1ccc(S(=O)(=O)N(C)C)cc1C1=NC(=O)C2=NC=NC2=N1`, the melting point was in the range of 268 to 269 °C.

On to `COc1cccc(CNc2cc(C(N)=O)c([N+](=O)[O-])cc2[N+](=O)[O-])c1`, for which the melting point lay within 222 to 224 °C.

In the case of `CC(C)n1c(C=O)c(-c2ccc(F)cc2)c(-c2ccccc2)c1C(N)=O`, the melting point is 187 to 188 °C.

Regarding `COc1ccccc1C=C1N=C(C)OC1=O`, the melting point fell in the range of 151 to 153 °C.

In turn, `Cc1ccc(C2CC(=O)C=C(N)C2)s1` (stereo not given) came in with a melting point of 172 to 173 °C.

The compound `O=C(Nc1cccnc1)N1CCc2cc(I)c(Cl)cc21` came in with a melting point greater than 200 °C.

For `Nc1nc(Cl)c2ncn(CC3CCOCO3)c2n1` (stereo not given), the melting point lay within 169 to 170 °C.

In the case of `CCC(=O)Oc1cc(-c2nc3cc(C(=O)O)ccc3oc2=O)cc([N+](=O)[O-])c1OC(=O)CC`, the melting point lay within 192 to 194 °C.

`CCOc1nc(OCC)nc(N2CCN(C=O)CC2)n1` registered a melting point of 106 to 108 °C.

As for `COc1ccc(-c2c(Cl)ncn2-c2ccc(S(C)(=O)=O)cc2)cc1F`, the melting point is 196 °C.

On to `O=C1c2ccccc2C(=O)N1Cc1ccc(/C=C/C(c2cc(Cl)cc(Cl)c2)C(F)(F)F)cc1Cl` (stereo not given), for which the melting point is 141 to 143 °C.

Regarding `CCC1=NNC(C)=C(C(=O)OC2CCCC2)C1c1cccc([N+](=O)[O-])c1` (stereo not given), the melting point worked out at 110 °C.

Compound `Cc1c(C(=O)Nc2ccc(N3CCC(N4CCOCC4)CC3)c([N+](=O)[O-])c2)cnn1-c1ccc(Cl)cc1` showed a melting point of 195 to 200 °C.

In turn, `O=C(NCc1ccncc1)c1ccccc1` came in with a melting point of 177 °C.

For `Cc1c(OCC(F)(F)F)ccnc1CSc1nc2ccccc2n1NC(=O)OC(C)(C)C`, the melting point was 153 to 155 °C.

For the compound `O=C(NC1CC1)c1ccc(N2CCNCC2)c(F)c1`, the melting point fell in the range of 141 to 143 °C.

`CCc1c(C)c2ccc(O)cc2oc1=O` displayed a melting point of 201 to 203 °C.

`CC(C)N(O)C(=O)Nc1ccc(S(C)=O)cc1` (stereo not given) displayed a melting point of 136 °C.

`CC(=O)N[C@@H]1C(O)O[C@H](COC(C)=O)[C@@H](O)[C@@H]1O` (stereo not given in full) showed a melting point of 47 to 51 °C.

The compound `CCOC(=O)N[C@@H]1[C@H](O)C(=O)N2[C@H](c3ccccc3)OC[C@@H]12` registered a melting point of 176 to 178 °C.

Compound `COC(=O)N(CCO)c1ccc(OCc2nc3ccccc3s2)cc1C` returned a melting point of 109 to 110 °C.

Take `CC(c1oc2ccccc2c(=O)c1-c1cccc(F)c1)n1cnc2c(N)ncnc21` (stereo not given): the melting point was 155 to 158 °C.

For `CCCCN[C@@H]1CN(CC)C[C@H]1O` (relative stereo), the melting point lay in the range of 57.5 to 59 °C.

For the compound `CCCCOc1c(CN)n(CC(C)C)c(=O)c2ccc(/C=C/C(N)=O)cc12`, the melting point is 173 to 175 °C.

Take `CCC(=NNc1ccc(-c2ccc(=O)n(C)n2)cc1)c1ccc(O)cc1O`: the melting point is 225 to 233 °C.

`COc1cccc2c(=O)n3c(cc12)S(=O)(=O)CCC3`: the melting point lay in the range of 251 to 252 °C.

Compound `CC(=O)NCc1c(C)cc(CN2CCN(c3ccc(F)cc3)CC2)cc1C` registered a melting point of 163 to 164 °C.

On to `O=C(O)c1ccc2c(c1)CCc1c(F)cccc1C2=O`, for which the melting point fell in the range of 248 to 250 °C.

Consider `CC(Cc1ccccc1)C1CC=C2C3=C(CCC21C)C1(C)CCC(O)C(C)(C)C1CC3` (stereo not given), for which the melting point fell in the range of 179 to 186 °C.

The compound `Cc1cc(Br)ccc1N1C(=O)c2ccc(Cl)cc2C1=O` had a melting point of 210 to 212 °C.

Compound `CCCCC(OC(=O)Nc1ccc(-c2ncn(-c3ccc(OC(F)(F)F)cc3)n2)cc1)C(=O)OCC` (stereo not given) had a melting point of 135 to 139 °C.

The compound `CC(=O)Nc1ccc(C(=O)O)cc1NC(=O)CO` showed a melting point of 214 to 215 °C.

Take `COc1ccc(C(=O)NCCCCCCCCCCCCNC(=O)c2ccc(OC)cc2)cc1`: the melting point was 169 to 170 °C.

The compound `CN1CCC2(CC1)NC(=O)N(c1ccc(C#N)c(C(F)(F)F)c1)C2=N` yielded a melting point of 199 to 200 °C.

With `CC1CN(C)c2c(Cl)ccc3c(=O)c(C(=O)O)cn1c23` (stereo not given), the melting point was 243 to 245 °C.

Regarding `C=C(C)Cn1nc(C(=O)c2cccc(O)c2)c2ccccc21`, the melting point lay in the range of 75 to 78 °C.

On to `CC(C)(C)c1csc(NC(=O)Nc2ccc(N3CCN(C(=O)Nc4ccc(OCCO)cc4C(F)(F)F)CC3)cc2)n1`, for which the melting point lay in the range of 130 to 132 °C.

In the case of `CC(C)[C@H](NC(=O)Oc1ccccc1)C(=O)O`, the melting point was in the range of 84.5 to 85.5 °C.

Compound `O=C(O)C=Cc1ccc(C=CC(=O)O)c2ccccc12` showed a melting point of 350 to 355 °C.

Compound `COc1ccc(C=C2SC(=S)N(CC(=O)O)C2=O)cc1` showed a melting point of 250 to 253 °C.

`Cc1nc(-n2ccc(OCCC3CC3)cc2=O)sc1C(=O)NCc1cccnc1` came in with a melting point of 170 to 172 °C.

Consider `CCc1cc2c(cc1O)CCC1C2CCC2(C)C(=CCOC)CCC12` (stereo not given), for which the melting point lay in the range of 133 to 134 °C.

`CCCCCCCCCCOc1ccc(C(=O)O)cc1C(C)(C)C` registered a melting point of 130 to 132 °C.

`O=[N+]([O-])c1ccc(Cl)c(NC(=S)NCCCO)c1` had a melting point of 127 °C.

For the compound `COC(=O)C(CCSC)NC(=O)c1ccc([N+](=O)[O-])cc1-c1cc(C)cc(C)c1` (stereo not given), the melting point lay in the range of 122 to 124 °C.

Consider `O=C(O)C1(CO)CCc2cc(C3CCCCC3)c(Cl)cc21` (stereo not given), for which the melting point is 195 to 197 °C.

Consider `COc1ccc(-c2ccc3c(c2)c2ccc(-c4ccc(OC)cc4)nc2n3S(=O)(=O)c2ccccc2)cc1`, for which the melting point lay in the range of 206 to 208 °C.

As to `CCOC(=O)CCNC(=O)Oc1c(C)n(C)ccc1=O`, the melting point was 171 to 173 °C.

`O=C(O)CCCCCc1cccc2cncn12` showed a melting point of 144 to 147 °C.

Consider `CCOC(=O)C1=NN(c2ccc([N+](=O)[O-])cc2)C2(N3CCCC3)CCCC12` (stereo not given), for which the melting point amounted to 118 °C.

Take `N#Cc1ccc(N2C(=O)C3C(O)CCCN3C2=O)c2ccccc12` (stereo not given): the melting point worked out at 243 °C.

Compound `CC(C)c1cc(O)cc2c1C(=O)N(CBr)S2(=O)=O` yielded a melting point of 167 to 169 °C.

Consider `CCCNc1nc(NCCC)nc(N2CCN(C(=O)Nc3cc(C)c(C)nc3OC)CC2)n1`, for which the melting point was 140 to 143 °C.

As for `Nc1ccc(S(=O)C2=CCCCC2)cc1[N+](=O)[O-]` (stereo not given), the melting point is 139 to 140 °C.

`CC(C)CCC1(C(F)(F)F)NC(=O)Nc2ccc(F)cc21` (racemic) showed a melting point of 179 °C.

For `COc1ccccc1C(=O)Nc1ccc(Cl)c(C(=O)OC(C)C)c1`, the melting point was in the range of 94 to 96 °C.

Compound `CCc1ncc(CCCOc2c(C)cc(-c3noc(C(F)(F)F)n3)cc2C)s1` came in with a melting point of 57 to 59 °C.

`CC(=O)N(C(=O)N(C)C)c1snc(C(C)C)c1C#N` returned a melting point of 128 to 130 °C.

For `CNc1nc(Nc2ccc(Cl)c(Cl)c2)ncc1NS(=O)(=O)Cc1ccccc1`, the melting point fell in the range of 233 to 235 °C.

`O=c1[nH]c(=O)n(C2OC(CO)C(O)C2O)cc1C(Cl)=CI` (stereo not given) registered a melting point of 109 to 111 °C.

Take `CN1C(=O)C(C)(C)N=C(c2ccccc2F)c2cc(N3C(=O)NC(C)(C)C3=O)ccc21`: the melting point lay in the range of 286 to 287 °C.

Regarding `CCOc1ccc2c(c1)n(CCN1CCOCC1)c(=O)n2S(=O)(=O)c1ccc(OC)cc1OC`, the melting point was in the range of 146 to 149 °C.

For `CCCCOC(=O)[C@H]1CN(c2ccc(C3CCSCC3)c(F)c2)C(=O)O1`, the melting point was in the range of 98 to 100 °C.

In turn, `CCOC(=O)C1Cc2c(OC)ccc(OC)c2CO1` (stereo not given) yielded a melting point of 59.8 °C.

In turn, `COc1ccc(P(c2cc(C)cc(C(C)(C)C)c2O)c2cc(C)cc(C(C)(C)C)c2O)cc1` displayed a melting point of 122 to 124 °C.

Regarding `COC(=O)CN(NC(N)=O)c1cccc(C)c1`, the melting point was in the range of 68 to 70 °C.

With `COC(=O)c1ccc(C=CC(=O)N2CCc3c([nH]c4ccccc34)C2c2ccc3c(c2)OCO3)cc1` (stereo not given), the melting point was 211 °C.

With `CC(C)(C)NNC(=O)c1ccc(Cl)cc1`, the melting point fell in the range of 116 to 122 °C.

`CN1CCN(C(=O)c2cc(N)cc3c2OCCO3)CC1`: the melting point came to 170 °C.

As to `CC(C)CN1C(=O)c2cnc(-c3ccccc3)nc2Nc2ccccc21`, the melting point lay in the range of 203 to 204 °C.

Compound `O=C(O)C(=O)c1ccc(OCCc2ccccc2)cc1` registered a melting point of 72 to 73 °C.

Compound `CC1NC(c2ccc(Cl)cc2)=NO1` (stereo not given) displayed a melting point of 110 to 112 °C.

Compound `CCOC(=O)C(Cc1ccccc1)NC(=O)c1cc2cc(Cl)ccc2[nH]1` (stereo not given) showed a melting point of 146 to 147 °C.

Regarding `CC1(CO)Cn2cc([N+](=O)[O-])nc2O1` (stereo not given), the melting point was in the range of 162 to 163 °C.

For `CC(=O)N(O)C(C)/C=C/c1cccc(Oc2ccc(Cl)cc2)c1` (stereo not given), the melting point was in the range of 86 to 87 °C.

In the case of `CN(C)CCCCNC(=O)c1ccccc1-c1nnc(CSCCOc2ccccc2)o1`, the melting point lay within 62 to 65 °C.

Turning to `COC(=O)c1ccccc1-c1ncc(-c2cccc(C(F)(F)F)c2)o1`, the melting point was in the range of 92.5 to 94 °C.

`N#CC1=C(Nc2ccc(Br)cc2)CCC1` gave a melting point of 136 to 138 °C.

`c1ccc(NC2CCc3ccccc3C2)cc1` (stereo not given) had a melting point of 193 to 196 °C.

Turning to `O=C(/C=C/c1ccc(O)cc1)CC(=O)/C=C/c1ccccc1CO`, the melting point lay within 173 to 180 °C.

The compound `CC(=O)C(=CN(C)C)c1ccccc1` registered a melting point of 66 °C.

Take `O=C(O)c1ccccc1CCc1n[nH]c2c1c(=O)n(-c1ccccc1)c1ncccc21`: the melting point fell in the range of 302 to 308 °C.

In turn, `CS(=O)(=O)N1C(=O)[C@H](C2CC2)[C@H]2[C@@H]1CCN2C(=O)OCc1ccccc1` (relative stereo) had a melting point of 144 to 150 °C.

`CC1=CC(=O)C(C(C)C)=C(CCNC(=O)C(F)(F)F)C1=O` gave a melting point of 94 to 95 °C.

`Cc1nn(C)c2nc(C(C)C)c(CO)c(-c3ccc(F)cc3)c12` yielded a melting point of 166 to 168 °C.

As for `Cc1c(NC(=O)c2ccc(-c3ccc(Cl)s3)cc2F)ccc2cc(CN3CCCCCC3)cnc12`, the melting point fell in the range of 166 to 167 °C.

For the compound `OCCC(O)OCn1cc(Cl)c2c(Cl)ncnc21` (stereo not given), the melting point is 142 to 143 °C.

In turn, `CCOC(=O)c1cc2cc(C#N)ccc2[nH]1` came in with a melting point of 181 to 182 °C.
